Source: ChEMBL document CHEMBL5252556, “Fuligopyrones from the Fruiting Bodies of Myxomycete Fuligo septica Offer Short-Term Protection from Abiotic Stress Induced by UV Radiation” (J Nat Prod, 2023)

Legend:
Candida albicans = assay: Antifungal activity against Candida albicans ATCC 10231 measured after 24 hrs; type: functional
Tritrichomonas foetus = assay: Anti-protozoal Tritrichomonas foetus KV-1 measured after 24 hrs; type: functional
Staphylococcus aureus = assay: Antibacterial activity against Staphylococcus aureus ATCC 25923 measured after 24 hrs; type: functional
Eragrostis tef = assay: Herbicidal activity against Eragrostis tef seed measured after 24 hrs; conditions: in Eragrostis tef
[1] = Cytotoxicity against mouse NS-1 cells measured after 72 hrs; type: toxicity, cell-based
Saccharomyces cerevisiae = assay: Antifungal activity against Saccharomyces cerevisiae ATCC 9763 measured after 24 hrs; type: functional
Bacillus subtilis = assay: Antibacterial activity against Bacillus subtilis ATCC 6633 measured after 24 hrs; type: functional
[2] = Cytotoxicity against […] NFF measured after 72 hrs; type: toxicity, cell-based; conditions: NFF cells

Compound | MIC (Candida albicans) | LD99 (Tritrichomonas foetus) | MIC (Staphylococcus aureus) | MIC (Eragrostis tef) | IC50 at 72 h [1] | MIC (Saccharomyces cerevisiae) | MIC (Bacillus subtilis) | IC50 at 72 h [2]
O=C(/C=C/C=C/c1ccc(O)cc1)NCCc1cc(O)cc(=O)o1 | > 200 µg/mL | >100 µg/mL | > 100 µg/mL | > 100 µg/mL | > 200 µM | > 200 µg/mL | > 100 µg/mL | > 200 µM
O=C(/C=C/C=C/c1ccc(O)cc1)NCCc1cc(O)c(Cl)c(=O)o1 | > 200 µg/mL | >100 µg/mL | > 100 µg/mL | > 100 µg/mL | > 200 µM | > 200 µg/mL | > 100 µg/mL | > 200 µM
